Where no end group is shown, it is not given here.
Columns and labels:
CD11b/CD18 = molecular target: T1, CD11b/CD18 (Homo sapiens, UniProt P05107+P11215); assay: Downmodulation of CD11b/CD18 on macrophages; format: cell-based; conditions: wells coated with peptides 0.5 mM or mAb IB4 50 μg/ml
T1 construct: endogenous in cells; host or cells: human monocyte-derived macrophages from buffy coats
Protocol: Human monocytes were purified from buffy coats on Percoll gradients and cultured in 12.5% human serum in Teflon beakers. Macrophages were harvested from Teflon beakers after 6-8 days and suspended in HAP buffer. Terasaki wells were coated with 5 μl of peptides (0.5 mM) or anti-CD18 mAb IB4 (50 μg/ml). Control wells were coated with HAP. After 2 hours of incubation at RT, 5 μl of macrophages (5×10^5 /ml HAP) were added and allowed to spread for 45 mins. at 37° C. […] IgM-coated erythrocytes in buffer served as negative control. After washing, the number of erythrocytes bound per 100 leukocytes (adherence index) was quantitated visually under an inverted microscope.

[1] = system: rats inoculated intracisternally with Haemophilus influenzae type b lipooligosaccharide; assay: Rat meningitis model (H. influenzae LOS); format: in vivo
Protocol: The experiments were performed according to established protocols (Wispelway et al., 1988, J. Clin. Invest., 82: 1339-1346). Purified Haemophilus influenzae type b strain DL42 lipooligosaccharide (LOS) was prepared for inoculation by sonication for 30 minutes, dilution to the desired concentration (20 ng/50 μl) in normal saline or PBS, and sonication for an additional 15 to 30 minutes just prior to use.
Briefly, anesthetized female Wistar rats were placed under a micromanipulator and inoculated intracisternally with a 25 gauge needle. After removal of 50 μl of CSF (without visible blood contamination), rats were inoculated intracisternally with 50 μl (20 ng) of LOS using a 1 ml syringe with a 25 gauge needle. Ten to fifteen minutes after inoculation with LOS, the rats were treated by intravenous administration of the test substance: a solution of an FHA peptide in PBS, a solution of a control peptide in PBS, or an equal volume of PBS alone.
Three hours after LOS inoculation, 5 μCi of ^125 I-radiolabelled albumin in 50 μl normal saline was administered intravenously. One hour later, CSF was collected via intracisternal puncture and blood samples were collected via intracardiac puncture. CSF leukocytosis was determined by manually counting white blood cells using a hemacytometer, and blood-brain barrier permeability was determined as the percent of radioactivity in whole blood that was present in the CSF. Blood samples were obtained immediately prior to inoculation, immediately prior to treatment, and at 4 hours post-inoculation for determination of peripheral white blood cell concentrations.

THP-1 cells = assay: Generation of Factor Xa by monocytes; format: cell-based; conditions: peptides 0.5 mM
Protocol: Factor Xa generation was determined by a modification of the method of Miletich et al. (1978), J. Biol. Chem. 253: 6908-6916. THP-1 cells (ATCC; 3×10^7 /ml) resuspended in RPMI 1640 (Bio Whittaker, Walkersville, Md.) were incubated with 100 μM ADP (Sigma), 2.5 mM CaCl2, 1 or 5 μg/ml Factor X (Hematologic Technologies Inc.) and 0.5 mM peptides at room temperature. After 20 minutes, 100 μl of the reaction mixture was transferred to 37° C. and supplemented with 100 μl of bovine factor VII- and Factor X-deficient plasma (Sigma). Coagulation was initiated by adding 100 μl of 25 mM CaCl2 and the clotting time was determined. Factor Xa procoagulant activity (ng/ml) was calculated by means of a standard curve constructed by serial concentrations of Factor Xa (Hematologic Technologies Inc.) from 50 to 250 ng/ml.

Human neutrophils = assay: Binding of 125I-Factor X to neutrophils; conditions: read-out: IC50 of inhibition of 125I-Factor X binding
Protocol: Human Factor X (Sigma or Hematologic Technologies Inc.) was labeled with ^125 I using Iodogen (Pierce Chemical Co.) Human neutrophils were isolated from heparinized blood according to the manufacturer's specification using Neutrophil Isolation Medium (Cardinal Associates, Santa Fe, N.M.) and washed three times with 5 mM EDTA-phosphate-buffered saline (PBS), pH 7.2, at 4° C. To eliminate platelet contamination,neutrophils were incubated with autologous serum containing 5 mM EDTA for 30 mins. at 37° C., washed three times with ice-cold PBS, pH 7.2, and resuspended in RPMI 1640 tissue culture medium (Whittaker M. A. Bioproducts, Walkersville, Md.) at 4° C. Binding of ^125 I-Factor X to neutrophils was measured based on a method described by Altieri et al. (1991) Science 254: 1200-1202. Briefly, 200 μl of neutrophils (1.5×10^7 /ml) were supplemented with 17.5 μl of 50 mM CaCl2, stimulated with 3.5 μl of 100 μM NH2 -formyl-Met-Leu-Phe (Sigma), and mixed with 30 μl of 10.3 μg/ml ^125 I-Factor X and 100 μl of 1.75 mM of peptide. Buffer alone and a peptide of scrambled sequence served as controls in each of the 3 experiments. After incubation for 20 mins. at room temperature, neutrophil-bound ^125 I-Factor X was separated from unbound ^125 I-Factor X by centrifugation of 300 μl aliquots through 50 μl of a mixture of Hi phenyl silicone oil DC 550 and methyl silicone oil DC 200 5:1 (Nye Inc. Specialty Lubricants, New Bedford, Mass.) at 12,000×g for 2 mins. Aliquots of the supernatant (cell free ^125 I-Factor X) and the cell pellet (cell bound ^125 I-Factor X) were counted in a gamma-counter. Nonspecific binding (~50,000 cpm) was determined by adding a 100 fold excess of unlabeled Factor X, and subtracted from total radioactivity (~500,000 cpm for controls).

[2] = 50% rabbit plasma at 37° C.
Protocol: To determine the stability of the FHA II peptide, the unmodified or the acetylated-amidated peptide were incubated in 50% rabbit plasma at 37° C.

T1 sequence (P05107 23-769, other chains not shown): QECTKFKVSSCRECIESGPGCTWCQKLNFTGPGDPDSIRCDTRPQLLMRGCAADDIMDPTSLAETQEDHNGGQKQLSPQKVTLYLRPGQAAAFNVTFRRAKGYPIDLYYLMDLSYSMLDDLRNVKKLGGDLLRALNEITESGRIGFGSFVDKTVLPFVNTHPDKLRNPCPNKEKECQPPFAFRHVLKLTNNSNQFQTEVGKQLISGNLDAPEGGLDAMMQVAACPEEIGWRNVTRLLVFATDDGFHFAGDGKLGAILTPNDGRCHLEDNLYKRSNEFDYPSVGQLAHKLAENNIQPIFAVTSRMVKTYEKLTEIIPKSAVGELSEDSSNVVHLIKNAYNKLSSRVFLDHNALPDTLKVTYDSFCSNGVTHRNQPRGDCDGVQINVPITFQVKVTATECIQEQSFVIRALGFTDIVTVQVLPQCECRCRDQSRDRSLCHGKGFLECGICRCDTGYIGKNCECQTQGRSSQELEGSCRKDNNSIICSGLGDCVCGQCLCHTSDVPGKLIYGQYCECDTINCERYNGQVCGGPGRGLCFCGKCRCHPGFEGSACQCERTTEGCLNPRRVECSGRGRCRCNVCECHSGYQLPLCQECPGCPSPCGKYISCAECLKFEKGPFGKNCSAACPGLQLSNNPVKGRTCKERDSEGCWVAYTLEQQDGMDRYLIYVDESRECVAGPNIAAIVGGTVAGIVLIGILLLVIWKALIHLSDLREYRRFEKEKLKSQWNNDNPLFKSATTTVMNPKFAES

RADPHQGVLAQGDIIMDAKG [FHA Cb]
reduction of binding of C3bi-coated erythrocytes to macrophages (CD11b/CD18): no significant effect

Ac-VEEDTKG-NH2 [scrambled ac/am FHA II, VEEDTKG, reference compound]
BBB permeability ([1]; Experiment #3, 600 nmol): 7.74 ± 3.59% | Leukocytosis ([1]; Experiment #3, 600 nmol i.v., CSF 4 hours after LOS): 14,287 ± 10,199 cells/ml

RGDPHQGVLAQGDIIMDAKG [FHA Ca]
reduction of binding of C3bi-coated erythrocytes to macrophages (CD11b/CD18): 61±7% | neutropenia ([1]; peripheral white blood cells): No neutropenia was observed

AADPHQGVLAQGDIIMDAKG [FHA Cc]
reduction of binding of C3bi-coated erythrocytes to macrophages (CD11b/CD18): no significant effect

GTLLLRNDALTENGTVTISA [FHA Cd]
reduction of binding of C3bi-coated erythrocytes to macrophages (CD11b/CD18): no significant effect

CC(=O)N[C@@H](CC(C)C)C(=O)N[C@@H](CC(C)C)C(=O)N[C@H](C=O)CCCNC(=N)N [Leupeptin, reference compound]
Clotting time (THP-1 cells): 63.0 ± 4.0 s | Factor Xa (THP-1 cells; from standard curve): < 10.0 ng/mL

ETKEVDG [FHA II, ETKEVDG]
IC50 (Human neutrophils): 10 µM | time in which concentration decreased by half [2]: 4 to 6 h

GYDTKQEDG [Factor X II, reference compound]
IC50 (Human neutrophils): 500 µM
